Measured values reported in paper PMC6518372, “An enzymatically stable GIP/xenin hybrid peptide restores GIP sensitivity, enhances beta cell function and improves glucose homeostasis in high-fat-fed mice” (Diabetologia, 2016).
Marks after values point to notes of the source that are not given here.

Tests used:
BRIN-BD11 cells = experiment: In vitro insulin secretion from BRIN-BD11 cells; type: cell-based, rat; details: 20 min
Protocol: BRIN-BD11 cells were used to assess the insulin-releasing activity of test peptides, as described previously. This hybrid cell line (ECACC 10033003) was originally generated in-house by electrofusion of a primary culture of New England Deaconess Hospital (NEDH) rat pancreatic islets with RINm5F (a cell line derived from an NEDH rat insulinoma), and has been mycoplasma eradicated. For details of experimental conditions please see ESM Methods. Insulin was measured by radioimmunoassay. We assessed the impact of GIP and neurotensin receptors on (DAla^2)GIP/xenin-8-Gln-induced insulin secretion in BRIN-BD11 cells. Cells were incubated in 5.6 mmol/l glucose with (DAla^2)GIP/xenin-8-Gln (10^−6 mol/l) alone or in combination with the GIP receptor antagonist GIP(6-30)Cex-K^40[Pal] [32] (where Pal is palmitate) or the neurotensin receptor antagonist SR142948A (Sigma, Poole, UK), and insulin secretion determined as described above. In addition, to determine mechanisms, intracellular Ca^2+ was also measured in BRIN-BD11 cells following treatment with test peptides (10^−6 mol/l), using a Flexstation scanning fluorometer (FLIPR Calcium 5 assay kit; Molecular Devices, Sunnyvale, CA, USA), as described previously.
In vitro insulin release studies Cells were seeded at a density of 150,000 cells/well in 24-well plates (Nunc, Roskilde, Denmark) and allowed to attach overnight at 37 °C. Culture medium was removed and cells were pre-incubated in Krebs–Ringer bicarbonate buffer (containing 0.5% (w/v) BSA, pH 7.4) supplemented with 1.1 mmol/l glucose for 40 min at 37 °C. Following the pre-incubation, experiments (n=8) were performed in presence of glucose (5.6 or 16.7 mmol/l) with a […]
incubations, aliquots of assay buffer were collected from each well and stored at -20 °C prior to […]
Acute in vivo effects in lean mice For food intake studies, fasted (18 h) mice were given intraperitoneal (i.p) injections of peptides at a dose of 25, 100 or 250 nmol/kg bw. Mice were then allowed free access to normal chow for 180 mins and cumulative food intake measured. […]

lean control mice [1] = experiment: Persistent glucose-lowering and insulin-releasing effects, peptide 4 h before glucose load; type: in vivo, mouse; details: 25 nmol/kg injected 4 h before i.p. glucose load 18 mmol/kg, non-fasted lean mice, vs saline
Protocol: Specific information on acute feeding, glucose homeostasis and insulin-secretory studies is given in ESM Methods. To assess the impact of GIP and neurotensin receptor activation on (DAla^2)GIP/xenin-8-Gln-induced glucose-lowering and insulin-secretory actions in mice, (DAla^2)GIP/xenin-8-Gln was administered by i.p. injection (25 nmol/kg body weight) in combination with glucose (18 mmol/kg) in the absence and presence of GIP(6-30)Cex-K^40[Pal] and SR142948A (both at 25 nmol/kg), and glucose and insulin were measured as described above. In a final series of experiments, test peptides (25 nmol/kg) or saline vehicle (0.9% wt/vol. NaCl) were injected 4 h before a glucose load (18 mmol/kg) in non-fasted mice and blood glucose and plasma insulin measured as above.

high-fat-fed mice [2] = experiment: Metabolic response to native GIP after 21 day treatment; type: in vivo, mouse; details: 25 nmol/kg twice daily for 21 days
Protocol: Twice-daily (09:30 and 17:30 hours) i.p. injections of saline vehicle, (DAla^2)GIP or (DAla^2)GIP/xenin-8-Gln hybrid (both at 25 nmol/kg) were administered for 21 days in high-fat-fed mice. Energy intake and body weight were monitored daily and non-fasting blood glucose and plasma insulin concentrations were assessed at 3 day intervals. On day 21, a non-fasted 24 h glucose profile was conducted. At the end of the treatment period, i.p. glucose tolerance (18 mmol/kg), biological response to GIP (18 mmol/kg glucose in combination with native GIP [25 nmol/kg], i.p.) and insulin sensitivity (15 U/kg; i.p.) tests were performed. Terminal analysis included measurement of total body fat and lean mass by dual-energy X-ray absorptiometry (DEXA) scanning (Piximus Densitometer; Inside Outside Sales, Fitchburg, WI, USA) and extraction of pancreatic tissue for analysis as detailed below.

lean control mice [3] = experiment: Acute cumulative food intake in lean mice; type: in vivo, mouse; details: 250 nmol/kg i.p., 18 h fasted lean mice, 180 min post injection, vs saline
Protocol: Animals Acute animal studies were conducted in male NIH Swiss mice (12-14 weeks old, Harlan Ltd, UK) maintained on a standard rodent maintenance diet (10% fat, 30% protein and 60% carbohydrate, Trouw Nutrition, UK). Prior to commencement of longer term studies, all animals, except lean controls that continued on rodent maintenance diet, were maintained on a high-fat diet (45% fat, 35% carbohydrate and 20% protein, Special Diet Services, UK) for 12 weeks. This diet […]
individually in an air-conditioned room at 22 ± 2 °C with a 12 h light:12 h dark cycle and had free access to food and water. Animal experiments were carried out in accordance with the UK Animals (Scientific Procedures) Act 1986.
Acute in vivo effects in lean mice For food intake studies, fasted (18 h) mice were given intraperitoneal (i.p) injections of peptides at a dose of 25, 100 or 250 nmol/kg bw. Mice were then allowed free access to normal chow for 180 mins and cumulative food intake measured. For glucose homeostasis and […]

high-fat-fed mice [4] = experiment: Pancreatic insulin content and islet histology after 21 day treatment; type: in vivo, mouse; details: 21 days at 25 nmol/kg twice daily i.p.
Protocol: Pancreas tissue was excised, divided longitudinally and either snap frozen for extraction of insulin using acid ethanol (5 ml/g), as described previously, or processed for immunohistochemical examination. Immunohistochemistry was performed as described previously. For specific details, please see ESM Methods. […]
insulin secretory studies, blood glucose and plasma insulin were measured immediately prior to and 15, 30, 60 and 105 min after i.p. administration of glucose alone (18 mmol/kg bw) or in combination with test peptides (each at 25 nmol/kg bw) in non-fasted mice.
Immunohistochemistry Tissue sections were deparaffinised, rehydrated and probed with primary antibodies: mouse anti-insulin antibody (1:500; Abcam, ab6995), guinea-pig anti-glucagon antibody (PCA2/4, 1:400; raised in-house) or rabbit anti-Ki67 (1:200; Abcam ab16667), as appropriate. We confirmed the specificity of all antibodies in blocking experiments using the native peptide. Sections were then incubated with secondary antibody, Alexa Fluor 488 goat anti-guinea pig IgG (1:400), Alexa Fluor 594 goat anti-mouse IgG (1:400) or Alexa Fluor 594 goat anti-rabbit IgG (1:400); respectively. TUNEL staining was performed using fluorescein in situ cell detection kit (Roche Diagnostics, Germany). The slides were viewed under a FITC (488 nm) or TRITC filter (594 nm) using a fluorescent microscope (Olympus system microscope, model BX51) and photographed using a DP70 camera adapter system. Islet parameters were analysed using CellF image analysis software (Olympus Soft Imaging Solutions, GmbH).

[5] = AUC 0–105 min after i.p. glucose 18 mmol/kg with GIP 25 nmol/kg, 18 h fasted high-fat-fed mice, mean ± SEM, 6–8 mice

`CC[C@H](C)[C@H](NC(=O)[C@H](CO)NC(=O)[C@H](Cc1ccc(O)cc1)NC(=O)[C@H](CC(=O)O)NC(=O)[C@H](CO)NC(=O)[C@@H](NC(=O)[C@H](Cc1ccccc1)NC(=O)[C@@H](NC(=O)CNC(=O)[C@H](CCC(=O)O)NC(=O)[C@@H](C)NC(=O)[C@@H](N)Cc1ccc(O)cc1)[C@@H](C)O)[C@@H](C)CC)C(=O)N[C@@H](C)C(=O)N[C@@H](CCSC)C(=O)N[C@@H](CC(=O)O)C(=O)N[C@@H](CCCCN)C(=O)N[C@H](C(=O)N[C@@H](Cc1c[nH]cn1)C(=O)N[C@@H](CCC(N)=O)C(=O)N[C@@H](CCC(N)=O)C(=O)N[C@@H](CC(=O)O)C(=O)N[C@@H](Cc1ccccc1)C(=O)N[C@H](C(=O)N[C@@H](CC(N)=O)C(=O)N[C@@H](Cc1c[nH]c2ccccc12)C(=O)N[C@@H](CC(C)C)C(=O)N[C@@H](CC(C)C)C(=O)N[C@@H](C)C(=O)N[C@@H](CCC(N)=O)C(=O)N[C@@H](CCCCN)C(=O)NCC(=O)N[C@@H](CCCCN)C(=O)N[C@@H](CCCCN)C(=O)N[C@@H](CC(N)=O)C(=O)N[C@@H](CC(=O)O)C(=O)N[C@@H](Cc1c[nH]c2ccccc12)C(=O)N[C@@H](CCCCN)C(=O)N[C@@H](Cc1c[nH]cn1)C(=O)N[C@@H](CC(N)=O)C(=O)N[C@H](C(=O)N[C@H](C(=O)N[C@@H](CCC(N)=O)C(=O)O)[C@@H](C)O)[C@@H](C)CC)C(C)C)[C@@H](C)CC` [(DAla^2)GIP] was tested, and the “Peptide-mediated insulin secretion in presence of GIP receptor antagonist GIP(6-30)Cex-K^40[Pal]” value (BRIN-BD11 cells; peptide 10^−6 mol/l, antagonist 10^−6 mol/l, 5.6 mmol/l glucose) was “completely annulled”, the “Insulin release from BRIN-BD11 cells” value (BRIN-BD11 cells; peptide 10^−8 mol/l, 5.6 or 16.7 mmol/l glucose, vs respective glucose controls) was “significant (p < 0.01 to p < 0.001) increase in insulin release” and the “Overall AUC for blood glucose after glucose challenge” value (lean control mice [1]) was “significantly reduced the overall AUC for blood glucose (p < 0.05)”. The “Plasma insulin AUC after glucose challenge” value (lean control mice [1]) was “increased plasma insulin AUC (p < 0.05)”, the “Decrease of overall blood glucose AUC in response to native GIP compared with saline-treated control” value (high-fat-fed mice [2]; high-fat-fed mice, glucose 18 mmol/kg with GIP 25 nmol/kg) was 36% and the “Metabolic response to GIP: Blood glucose AUC” value (high-fat-fed mice [2]; [5]) was 1029.5 ± 138.0 mmol·min/L. For the same molecule, the “Metabolic response to GIP: Plasma insulin AUC” value (high-fat-fed mice [2]; [5]) was 20,308 ± 3805**^,††† pmol/l × min, the Cumulative food intake (lean control mice [3]) was “all peptides except (DAla^2)GIP induced significant (p < 0.05 to p < 0.01) reductions” and the Beta cell area (high-fat-fed mice [4]) was “no significant effect on overall pancreatic islet area or beta cell area”. For the same molecule, the Pancreatic islet area (high-fat-fed mice [4]) was “no significant effect on overall pancreatic islet area or beta cell area”, the “Number of islets per mm^2” value (high-fat-fed mice [4]; vs all other groups) was “significantly (p < 0.05 to p < 0.01) augmented” and the Alpha cell area (high-fat-fed mice [4]; vs high-fat-fed controls) was “decreased (p < 0.001) alpha cell area”. The “Frequency of beta cell apoptosis (TUNEL)” value (high-fat-fed mice [4]; vs high-fat-fed controls) was “significantly (p < 0.01) decreased”.
